Source: US11969428B2, “Methods and pharmaceutical compositions for treating lymphoid malignancy” (priority 2011, dated 2024)

Tested on: PTEN null T-ALL
Method: Mice deficient for PTEN in the T cell lineage were generated by crossing Lck-cre with floxed Pten (Hennet et al., 1995; Trotman et al., 2003).
Mice received an oral dose (10 mg kg^−1) of the inhibitor every 8 hours for a period of 7 days and were then followed until moribund.
Pten^fl/fl mice were crossed with a strain in which a luciferase cDNA, preceded by a LoxP-stop-LoxP cassette, was introduced into the ubiquitously expressed ROSA26 locus (Safran et al., 2003). Progeny were then crossed with Lck-cre transgenics to delete Pten in T cell progenitors and induce expression of luciferase (Lck/Pten^fl/fl; Gt(ROSA)26Sor^tm1(Luc)Kael/J).

With `Cc1ccccc1-n1c(C(C)Nc2nc(N)nc3nc[nH]c23)nc2cccc(C)c2c1=O` (stereo not drawn) [CAL-130] the “weights of thymi, liver, spleen, and kidneys versus vehicle control” value (7 days treatment) was “significantly less”, the median survival (Lck/Pten fl/fl mice with T-ALL, oral 10 mg kg−1 every 8 hours for 7 days) was 45 days and the WBC (Lck/Pten fl/fl mice, by day 4) was “dramatic reduction”. For the same compound, the “apoptosis (sub-G0 population after PI staining)” value (Lck/Pten fl/fl mice, days 4 through 7) was “increase in apoptosis”, the bioluminescent signals (Lck/Pten fl/fl;Gt(ROSA)26Sor luciferase mice, day 4 of treatment) was “dramatically lower” and the “peripheral blood T-ALL cells” value (diseased Lck/Pten fl/fl mice, within hours of treatment (data not shown)) was “dramatic and sustained reduction”.
